One block for each compound: values may come before it. Active and inactive are the calls of the source.
Columns and labels:
[1] = molecular target: T1, DNA repair protein RAD52 homolog (Homo sapiens, UniProt P43351); assay type: functional, biochemical
T1 sequence (P43351 whole entry): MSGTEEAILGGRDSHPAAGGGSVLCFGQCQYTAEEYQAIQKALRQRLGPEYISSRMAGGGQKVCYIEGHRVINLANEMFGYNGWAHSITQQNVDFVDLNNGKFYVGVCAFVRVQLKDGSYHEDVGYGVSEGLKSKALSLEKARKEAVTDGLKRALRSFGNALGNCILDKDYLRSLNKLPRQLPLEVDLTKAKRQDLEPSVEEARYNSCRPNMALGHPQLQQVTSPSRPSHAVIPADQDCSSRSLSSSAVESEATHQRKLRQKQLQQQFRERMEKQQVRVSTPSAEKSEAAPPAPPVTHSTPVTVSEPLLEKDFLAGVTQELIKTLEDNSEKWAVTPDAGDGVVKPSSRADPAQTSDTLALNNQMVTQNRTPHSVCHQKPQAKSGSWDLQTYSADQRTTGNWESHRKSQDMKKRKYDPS

[2] = molecular target: T2, DNA repair and recombination protein RAD54-like (Homo sapiens, UniProt Q92698); assay: inhibitors of human RAD54 branch migration, confirmation, biochemical, fluorescence, cherry-picked samples, dose series (AID 651657); assay type: functional
T2 sequence (Q92698 whole entry): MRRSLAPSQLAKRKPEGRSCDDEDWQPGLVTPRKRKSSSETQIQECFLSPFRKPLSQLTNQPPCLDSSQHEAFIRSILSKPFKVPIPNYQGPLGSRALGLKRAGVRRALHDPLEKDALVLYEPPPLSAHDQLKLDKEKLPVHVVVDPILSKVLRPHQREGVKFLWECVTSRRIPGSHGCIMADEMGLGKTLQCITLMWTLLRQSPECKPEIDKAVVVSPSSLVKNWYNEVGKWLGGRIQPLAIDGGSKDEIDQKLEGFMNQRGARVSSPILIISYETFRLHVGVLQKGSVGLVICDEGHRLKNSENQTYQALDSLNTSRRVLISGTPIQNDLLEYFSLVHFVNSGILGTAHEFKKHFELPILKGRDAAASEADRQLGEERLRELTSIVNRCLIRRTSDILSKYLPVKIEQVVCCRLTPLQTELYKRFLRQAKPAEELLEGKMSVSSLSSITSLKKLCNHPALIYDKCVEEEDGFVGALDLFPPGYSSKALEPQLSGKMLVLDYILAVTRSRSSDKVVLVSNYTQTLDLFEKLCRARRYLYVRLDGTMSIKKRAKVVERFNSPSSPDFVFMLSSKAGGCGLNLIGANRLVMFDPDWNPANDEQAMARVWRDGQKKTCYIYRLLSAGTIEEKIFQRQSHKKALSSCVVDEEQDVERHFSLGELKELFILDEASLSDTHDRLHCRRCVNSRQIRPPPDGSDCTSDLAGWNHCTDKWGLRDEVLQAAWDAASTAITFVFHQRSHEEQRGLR

[3] = molecular target: T3, Sentrin-specific protease 8 (Homo sapiens, UniProt Q96LD8); assay type: functional
T3 sequence (Q96LD8 whole entry): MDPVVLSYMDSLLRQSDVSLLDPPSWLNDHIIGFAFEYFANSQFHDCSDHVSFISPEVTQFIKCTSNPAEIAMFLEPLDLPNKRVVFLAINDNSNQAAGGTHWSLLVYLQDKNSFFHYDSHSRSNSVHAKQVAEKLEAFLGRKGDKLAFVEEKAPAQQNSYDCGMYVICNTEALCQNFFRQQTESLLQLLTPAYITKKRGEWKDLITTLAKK

[4] = molecular target: T3, Sentrin-specific protease 8; assay type: functional; remark: listed apart in the source
[5] = molecular target: Phospholipase A2 (Homo sapiens, UniProt P04054); assay type: functional;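 also: confirmatory dose-response counterscreen on phospholipase A2, testing hits that came from an ultra-high-throughput screen for ATG4B inhibitors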
Sequence of Phospholipase A2 (P04054 whole entry): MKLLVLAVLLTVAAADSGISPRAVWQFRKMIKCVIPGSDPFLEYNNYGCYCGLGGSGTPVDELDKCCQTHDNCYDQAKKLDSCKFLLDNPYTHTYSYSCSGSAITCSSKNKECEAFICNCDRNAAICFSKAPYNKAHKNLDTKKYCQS

[6] = molecular target: T4, Cysteine protease ATG4B (Homo sapiens, UniProt Q9Y4P1); assay type: functional;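 also: Fluorescence-based dose-response confirmation assay measuring inhibition of ATG4B activity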
T4 sequence (Q9Y4P1 whole entry): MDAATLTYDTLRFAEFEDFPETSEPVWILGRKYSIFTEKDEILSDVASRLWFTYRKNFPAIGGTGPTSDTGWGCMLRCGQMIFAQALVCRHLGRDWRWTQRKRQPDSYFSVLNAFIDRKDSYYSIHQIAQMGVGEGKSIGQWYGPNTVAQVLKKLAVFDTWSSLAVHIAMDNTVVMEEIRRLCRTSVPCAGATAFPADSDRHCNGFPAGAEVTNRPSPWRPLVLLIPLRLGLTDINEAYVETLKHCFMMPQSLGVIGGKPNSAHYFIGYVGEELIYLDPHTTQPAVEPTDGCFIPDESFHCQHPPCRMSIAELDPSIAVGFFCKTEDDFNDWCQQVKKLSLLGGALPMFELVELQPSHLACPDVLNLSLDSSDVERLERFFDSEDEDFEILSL

[7] = molecular target: T5, Probable nicotinate-nucleotide adenylyltransferase (Staphylococcus aureus (strain N315), UniProt P65502); assay type: functional, Staphylococcus aureus subsp. aureus N315; conditions: read-out: IC50_Mean;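 as to IC50 Mean: confirmatory dose-response retesting of NadD inhibitor hits first found in an ultra-high-throughput screen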
[8] = molecular target: Luciferin 4-monooxygenase (Photinus pyralis, UniProt P08659); assay: firefly luciferase enzyme inhibitors, dose response, biochemical, luminescence (AID 1891)
Sequence of Luciferin 4-monooxygenase (P08659 whole entry): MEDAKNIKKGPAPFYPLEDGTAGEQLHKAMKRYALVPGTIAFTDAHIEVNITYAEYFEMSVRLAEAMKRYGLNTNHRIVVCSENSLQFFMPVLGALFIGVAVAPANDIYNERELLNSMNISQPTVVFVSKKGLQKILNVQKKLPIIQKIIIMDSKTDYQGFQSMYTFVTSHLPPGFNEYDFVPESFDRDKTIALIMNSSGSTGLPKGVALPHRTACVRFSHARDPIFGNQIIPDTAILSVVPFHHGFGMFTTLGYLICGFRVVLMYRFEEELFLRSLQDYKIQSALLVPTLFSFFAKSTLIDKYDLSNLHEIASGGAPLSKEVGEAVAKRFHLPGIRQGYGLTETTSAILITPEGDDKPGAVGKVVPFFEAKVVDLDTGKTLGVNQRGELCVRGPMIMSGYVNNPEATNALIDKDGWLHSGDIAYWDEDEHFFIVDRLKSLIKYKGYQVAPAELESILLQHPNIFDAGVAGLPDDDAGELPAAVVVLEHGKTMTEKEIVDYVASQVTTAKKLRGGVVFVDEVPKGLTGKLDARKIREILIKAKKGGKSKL

[9] = Luminescence Cell-Based Dose Confirmation HTS to Identify Inhibitors of Platelet Dense Granule Release. [Related pubchem assays: 1663 (Primary HTS), 1678 (Summary of Project)]; assay type: functional
[10] = molecular target: T5, Probable nicotinate-nucleotide adenylyltransferase; assay type: functional, Staphylococcus aureus subsp. aureus N315
[11] = molecular target: T6, Galanin receptor type 3 (Homo sapiens, UniProt O60755); assay: Fluorescence-based cell-based primary high throughput dose response assay to identify antagonists of the Galanin Receptor 3 (GalR3).; assay type: functional
T6 sequence (O60755 whole entry): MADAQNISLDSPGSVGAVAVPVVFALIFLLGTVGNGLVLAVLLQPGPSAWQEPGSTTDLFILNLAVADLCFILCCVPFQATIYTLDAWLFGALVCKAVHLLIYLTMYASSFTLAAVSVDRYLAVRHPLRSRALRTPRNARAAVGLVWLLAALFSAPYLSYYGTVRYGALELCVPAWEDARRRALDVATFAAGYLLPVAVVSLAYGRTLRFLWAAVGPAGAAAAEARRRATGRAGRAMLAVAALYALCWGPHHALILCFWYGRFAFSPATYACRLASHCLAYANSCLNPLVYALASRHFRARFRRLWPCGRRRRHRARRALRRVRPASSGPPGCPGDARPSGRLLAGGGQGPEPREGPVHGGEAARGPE

[12] = cells; assay type: functional, cell-based; conditions: HEK-CNG
[13] = test system: INS1; assay: beta cell apoptosis inhibitors, cytokine rescue, dose response, luminescence, retest (AID 449756); assay type: functional, cell-based; conditions: Rattus norvegicus;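 also: cell death triggered by IL-1 beta plus TNF-alpha plus IFN-gamma mixture; protective hits raise ATP signal compared with cytokine alone wells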
[14] = test system: BJ; assay: cytotoxicity toward BJ-TERT-LT-ST fibroblasts, dose response, cell-based, RAS-independent, luminescence (AID 1935); assay type: functional; conditions: Homo sapiens;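 also: BJ fibroblasts immortalized with TERT plus LT and ST oncogenes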
[15] = test system: BJ; assay: cytotoxicity toward BJ-TERT fibroblasts, dose response, cell-based, RAS-independent, luminescence (AID 1933); assay type: functional; conditions: Homo sapiens
[16] = test system: BJ; assay: cells; assay type: functional, cell-based; conditions: Homo sapiens
[17] = test system: BJ; assay: cytotoxicity toward Ras-transformed BJeLR fibroblasts, dose response, cell-based, alamar blue fluorescence, cherrypicked samples (AID 2631); assay type: functional; conditions: Homo sapiens;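 also: confirmatory dose-response assay in RAS-dependent BJ fibroblasts engineered with TERT, LT and ST, with cytotoxicity read by fluorescence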
[18] = cytotoxicity toward DRD oncogenic fibroblasts, dose response, cell-based, non-viral oncogenic, luminescence (AID 1934); assay type: functional; conditions: Homo sapiens
[19] = inhibitors of intracellular T. cruzi replication, confirmation, NIH3T3 host cells, beta-gal luminescence (AID 2044); assay type: functional, cell-based;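 also: intracellular parasites grown in NIH/3T3 mouse fibroblasts as host cells; luminescent beta-galactosidase reporter signal from transgenic T. cruzi replicating inside host cells; inhibitors lower the luminescence signal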
[20] = cytotoxicity toward NIH3T3 fibroblasts, dose response, counter-screen, cell-based, ATP luminescence, mouse fibroblasts (AID 2010); assay type: functional;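 also: cells exposed to compound for about 90 hours before reading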
[21] = molecular target: Heat shock protein HSP 90-alpha (Homo sapiens, UniProt P07900); assay type: functional, organism-based
[22] = test system: Streptococcus; assay: Group A Streptococcus viability loss, dose response, counter-screen for streptokinase expression inhibitor project, luminescence, BacTiterGlo (AID 1915); assay type: functional, organism-based;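 also: potency for reduction of bacterial viability or growth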
[23] = test system: HEK293; assay: inhibitors of LMP1-driven NF-kB reporter, dose response, cell-based, HEK293, luciferase, cherry-pick (AID 588343); assay type: functional; conditions: Homo sapiens
[24] = test system: Streptococcus sp. 'group A'; assay: growth inhibition of control SK(-) GAS strain, dose response, counter-screen for streptokinase expression inhibitor project, luminescence, kanamycin, BacTiterGlo, confirmation (AID 1900); assay type: functional, organism-based

AC50 [1]: 2.35 µM (active)
AC50 [2]: 6.36 µM (active)
SMILES: COc1ccc(-c2nn(C)c3sc(C(=O)NCCN(C)C)cc23)cc1OC

SMILES: O=C(c1ncn(Cc2ccccc2)c1C(=O)N1CCc2ccccc2C1)N1CCc2ccccc2C1
IC50 [3]: 16 µM (active)
IC50 [4]: > 100 µM (inactive)

IC50 [5]: 7.55 µM (active)
IC50 [6]: 14.5 µM (active)
SMILES: CC1CC(C)CN(C(=O)C2CCN(S(=O)(=O)c3ccc4c(c3)CC(C)N4C(=O)C3CC3)CC2)C1 (configuration not stated)

SMILES: COc1cccc(C2c3c(-c4cc(Cl)c(C)cc4O)n[nH]c3C(=O)N2Cc2cccnc2)c1 (configuration not stated)
IC50 [7]: 46 µM (active)
EC50 [8]: > 112 µM (not active)
EC50 [9]: 41.2 µM (active)
IC50 [10]: 21.5 µM (active)

SMILES: CC1CC(=O)NN=C1c1ccc(NCCO)c([N+](=O)[O-])c1 (configuration not stated)
IC50 [11]: 0.367 µM (active)
EC50 [8]: > 112 µM (not active)
EC50 [12]: > 29.9 µM (inactive)
EC50 [9]: < 0.088 µM (active)

SMILES: O=C(COc1ccc(Cl)cc1)Nc1ccc(C(=O)NCc2cccnc2)cc1
AC50 [13]: < 0.195 µM (active)
EC50 [14]: 18.8 µM (inconclusive)
EC50 [15]: > 150 µM (not active)
EC50 [16]: 2.87 µM (active)
EC50 [17]: 25.6 µM (active)
EC50 [18]: > 150 µM (inconclusive)

AC50 [1]: 2.42 µM (active)
AC50 [2]: 26.7 µM (active)
SMILES: COc1cccc(-c2cnc3c(NC(C)=O)cc(-c4cccc(C(=O)NCCN(C)C)c4)cn23)c1

SMILES: Cc1ccc(NC(=S)N/N=C/c2ccc([N+](=O)[O-])s2)cc1
EC50 [19]: 1.34 µM (active)
AC50 [13]: 6.72 µM (active)
EC50 [20]: 7.86 µM (active)
AC50 [21]: 3.4 µM (active)
IC50 [3]: 21.5 µM (active)
IC50 [4]: 18.4 µM (active)

SMILES: Cc1cc(N/N=C\c2ccc(Br)cc2)nc(-n2nc(C)cc2C)n1
AC50 [13]: 2.43 µM (active)
EC50 [22]: 3.74 µM (active)
AC50 [23]: 3.83 µM (active)
EC50 [24]: 1.01 µM (active)

Reference: ChEMBL document CHEMBL1201862, “PubChem BioAssay data set” (2004)
